# From US20240279205A1, “NOVEL BENZIMIDAZOLE DERIVATIVE” (Carna Biosciences, Inc., priority 2020, published 2024)
# Biological target: T1, human STING (hSTING) (Homo sapiens, UniProt Q86WV6)
# T1 construct: host or cells: HEK-Blue ISG cells (HEK293-derived SEAP reporter line)
# Assay: Inhibition test of intracellular human STING (hSTING) pathway using SEAP reporter cells (HEK-Blue ISG), stimulation with Compound 3
# Assay type: cell-based
# Design: hSTING inhibitory activity: scale not given here
# Details: Compound 3 10 nM stimulation, 21 hours
# Outline: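 IC50 derived by regressing inhibition rate against log compound concentration (0.1 to 10 μM final, added 1 h before agonist), with 0% and 100% set by wells without and with 10 nM Compound 3. SEAP colour reaction read after 21 h stimulation of HEK-Blue ISG reporter cells.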
# T1 sequence (Q86WV6 whole entry H232R): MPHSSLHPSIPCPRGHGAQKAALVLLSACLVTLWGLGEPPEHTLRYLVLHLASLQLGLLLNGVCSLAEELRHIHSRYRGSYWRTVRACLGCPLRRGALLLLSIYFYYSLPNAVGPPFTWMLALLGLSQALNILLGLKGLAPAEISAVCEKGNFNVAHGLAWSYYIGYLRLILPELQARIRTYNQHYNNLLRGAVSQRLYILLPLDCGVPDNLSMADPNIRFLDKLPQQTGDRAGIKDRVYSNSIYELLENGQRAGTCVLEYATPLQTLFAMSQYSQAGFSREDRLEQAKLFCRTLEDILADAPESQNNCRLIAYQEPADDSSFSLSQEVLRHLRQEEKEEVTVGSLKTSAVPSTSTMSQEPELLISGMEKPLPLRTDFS
row,Structure (SMILES),hSTING inhibitory activity
1,"CN(C)n1c(Nc2c[nH]c3ccc(F)c(F)c23)nc2cc(C(F)(F)F)cc(F)c21 [Embodiment 278, N2-(4,5-difluoro-1H-indol-3-yl)-7-fluoro-N1,N1-dimethyl-5-(trifluoromethyl)-1H-benzo[d] imidazole-1,2-diamine]",* *
2,"Cc1ccc2[nH]cc(Nc3nc4cc(C(F)(F)F)cc(F)c4n3N(C)C)c2c1 [Embodiment 280, 7-fluoro-N1,N1-dimethyl-N2-(5-methyl-1H-indol-3-yl)-5-(trifluoromethyl)-1H-benzo[d]imidazole-1,2-diamine]",* * *
3,"Brc1ccc2[nH]cc(Nc3nc4ccccc4[nH]3)c2c1 [Example 1, N-(5-bromo-1H-indol-3-yl)-1H-benzo[d]imidazol-2-amine]",* *
4,"Cc1cccc2[nH]c(Nc3c[nH]c4ccc(Br)cc34)nc12 [Example 5, N-(5-bromo-1H-indol-3-yl)-4-methyl-1H-benzo[d]imidazol-2-amine]",* *
5,"Brc1ccc2[nH]cc(Nc3nc4cc(Oc5cccnc5)ccc4[nH]3)c2c1 [Example 13, N-(5-bromo-1H-indol-3-yl)-5-(pyridin-3-yloxy)-1H-benzo[d]imidazol-2-amine]",* *
6,"Ic1ccc2[nH]cc(Nc3nc4ccccc4[nH]3)c2c1 [Example 16, N-(5-iodo-1H-indol-3-yl)-1H-benzo[d]imidazol-2-amine]",* *
7,"COC(=O)c1cccc2[nH]c(Nc3c[nH]c4ccc(Br)cc34)nc12 [Example 20, methyl 2-[(5-bromo-1H-indol-3-yl)amino]-1H-benzo[d]imidazole-4-carboxylate]",* *

# The next lines start with the values.
row,hSTING inhibitory activity,Structure (SMILES)
1,* * *,"Cc1c(C(F)(F)F)ccc2c1nc(Nc1c[nH]c3ccc(Cl)cc13)n2C [Embodiment 276, N-(5-Chloro-1H-indol-3-yl)-1,4-dimethyl-5-(trifluoromethyl)-1H-benzo[d]imidazol-2-amine]"
2,* * *,"CNn1c(Nc2c[nH]c3ccc(C)cc23)nc2cc(C(F)(F)F)cc(F)c21 [Embodiment 277, 7-fluoro-N1-methyl-N2-(5-methyl-1H-indol-3-yl)-5-(trifluoromethyl)-1H-benzo[d]imidazole-1,2-diamine]"
3,* *,"CN(C)n1c(Nc2c[nH]c3cc(F)c(F)cc23)nc2cc(C(F)(F)F)cc(F)c21 [Embodiment 279, N2-(5,6-difluoro-1H-indol-3-yl)-7-fluoro-N1,N1-dimethyl-5-(trifluoromethyl)-1H-benzo[d] imidazole-1,2-diamine]"
4,* *,"Brc1cnc2[nH]cc(Nc3nc4cc(Oc5ccccc5)ccc4[nH]3)c2c1 [Example 10, N-(5-bromo-1H-pyrrolo[2,3-b]pyridin-3-yl)-5-phenoxy-1H-benzo[d]imidazol-2-amine]"

# Same assay, conditions: Compound 3 10 nM stimulation, 21 hours, read-out: hSTING inhibitory activity
row,Structure (SMILES),IC50 [µM]
1,"Brc1cccc2[nH]cc(Nc3nc4ccccc4[nH]3)c12 [Example 9, N-(4-bromo-1H-indol-3-yl)-1H-benzo[d]imidazol-2-amine]",≥ 10
2,"Clc1ccc2[nH]cc(Nc3nc4ccccc4[nH]3)c2c1 [Example 15, N-(5-chloro-1H-indol-3-yl)-1H-benzo[d]imidazol-2-amine]",1 to 10

# Now from value to compound:
row,IC50 [µM],Structure (SMILES)
1,≥ 10,"c1ccc(-c2ccc3[nH]cc(Nc4nc5ccccc5[nH]4)c3c2)cc1 [Example 2, N-(5-phenyl-1H-indol-3-yl)-1H-benzo[d]imidazol-2-amine]"
2,1 to 10,"Brc1cc2c(Nc3nc4cc(Oc5ccccc5)ccc4[nH]3)c[nH]c2cn1 [Example 11, N-(5-bromo-1H-pyrrolo[2,3-c]pyridin-3-yl)-5-phenoxy-1H-benzo[d]imidazol-2-amine]"
3,≥ 10,"Fc1ccc2[nH]cc(Nc3nc4ccccc4[nH]3)c2c1 [Example 14, N-(5-fluoro-1H-indol-3-yl)-1H-benzo[d]imidazol-2-amine]"
4,≥ 10,"Brc1cccc2c(Nc3nc4ccccc4[nH]3)c[nH]c12 [Example 17, N-(7-bromo-1H-indol-3-yl)-1H-benzo[d]imidazol-2-amine]"
